Reference: ChEMBL document CHEMBL3425436, “Assessing the oral bioavailability of difluorosialic acid prodrugs, potent viral neuraminidase inhibitors, using a snapshot PK screening assay” (Bioorg Med Chem Lett, 2015)

Tests used:
[1] = Stability in simulated gastric fluid at 10 uM at pH 1 measured at 15 mins; format: ADME; conditions: read-out: Stability
Mus musculus [2] = experiment: AUC in CD1 mouse assessed as (2R,3R,4R,5R,6R)-5-acetamido-4-amino-2,3-difluoro-6-((1R,2R)-1,2,3-trihydroxypropyl)tetrahydro-2H-pyran-2-carboxylic acid at 30 mg/kg, po; format: ADME, organism-based, Plasma; set-up: dose 30 mg/kg, route oral; conditions: in vivo
[3] = Stability in simulated gastric fluid at 10 uM at pH 4 measured at 60 mins; format: ADME; conditions: read-out: Stability
Mus musculus [4] = experiment: Cmax in CD1 mouse assessed as (2R,3R,4R,5R,6R)-5-acetamido-4-amino-2,3-difluoro-6-((1R,2R)-1,2,3-trihydroxypropyl)tetrahydro-2H-pyran-2-carboxylic acid at 30 mg/kg, po; format: ADME, organism-based; set-up: dose 30 mg/kg, route oral; conditions: in vivo
Mus musculus [5] = experiment: Tmax in CD1 mouse assessed as (2R,3R,4R,5R,6R)-5-acetamido-4-amino-2,3-difluoro-6-((1R,2R)-1,2,3-trihydroxypropyl)tetrahydro-2H-pyran-2-carboxylic acid at 30 mg/kg, po; format: ADME, organism-based; set-up: dose 30 mg/kg, route oral; conditions: in vivo
[6] = Stability in simulated gastric fluid at 10 uM at pH 1 measured at 60 mins; format: ADME; conditions: read-out: Stability
[7] = Stability in simulated gastric fluid at 10 uM at pH 4 measured at 15 mins; format: ADME; conditions: read-out: Stability
Mus musculus [8] = experiment: Total plasma concentration in CD1 mouse assessed as (2R,3R,4R,5R,6R)-5-acetamido-4-amino-2,3-difluoro-6-((1R,2R)-1,2,3-trihydroxypropyl)tetrahydro-2H-pyran-2-carboxylic acid at 30 mg/kg, po measured at 60 mins by reversed-phase UPLC/MS analysis; format: ADME, organism-based; set-up: dose 30 mg/kg, route oral; conditions: in vivo, 1 h
Mus musculus [9] = experiment: Oral bioavailability in CD1 mouse assessed as (2R,3R,4R,5R,6R)-5-acetamido-4-amino-2,3-difluoro-6-((1R,2R)-1,2,3-trihydroxypropyl)tetrahydro-2H-pyran-2-carboxylic acid at 30 mg/kg; format: ADME, organism-based; conditions: in vivo
Mus musculus [10] = experiment: Total plasma concentration in CD1 mouse assessed as (2R,3R,4R,5R,6R)-5-acetamido-4-amino-2,3-difluoro-6-((1R,2R)-1,2,3-trihydroxypropyl)tetrahydro-2H-pyran-2-carboxylic acid at 30 mg/kg, po measured at 20 mins by reversed-phase UPLC/MS analysis; format: ADME, organism-based; set-up: dose 30 mg/kg, route oral; conditions: in vivo
[11] = Metabolic stability in mouse plasma at 10 uM measured at 15 mins; format: ADME, cell-free; conditions: read-out: Stability
[12] = Metabolic stability in mouse plasma at 10 uM measured at 60 mins; format: ADME, cell-free; conditions: read-out: Stability

SMILES	concentration (Mus musculus [8]) [nM]	concentration (Mus musculus [10]) [nM]	also measured
CCCCCCCCOC(=O)OC[C@@H](O)[C@@H](O)[C@@H]1O[C@@](F)(C(=O)OC)[C@H](F)[C@H](N)[C@H]1NC(C)=O	6880	2970	remaining at 0.25 h, 10 µM [1]: 99%; AUC (Mus musculus [2]): 452 µmol·min; remaining at 1 h, 10 µM [3]: 88%; Cmax (Mus musculus [4]): 4100 nM; Tmax (Mus musculus [5]): 1 h; remaining at 1 h, 10 µM [6]: 90%; remaining at 0.25 h, 10 µM [7]: 94%; F (Mus musculus [9]): 6.7%
COC(=O)[C@]1(F)O[C@@H]([C@H](O)[C@H](O)COC(=O)OC(C)C)[C@H](NC(C)=O)[C@@H](N)[C@H]1F	2690	1680	–
CC(=O)N[C@@H]1[C@@H](N)[C@@H](F)[C@](F)(C(=O)OCC(=O)N(C)C)O[C@H]1[C@H](O)[C@H](O)CO	4390	5690	remaining at 0.25 h, 10 µM [1]: 53%; remaining at 1 h, 10 µM [3]: 74%; remaining at 1 h, 10 µM [6]: 25%; remaining at 0.25 h, 10 µM [7]: 88%
CCCCCCCCCCCCOC(=O)[C@]1(F)O[C@@H]([C@H](O)[C@H](O)CO)[C@H](NC(C)=O)[C@@H](N)[C@H]1F	2920	440	–
CCCCCCCCOC(=O)[C@]1(F)O[C@@H]([C@H](O)[C@H](O)CO)[C@H](NC(C)=O)[C@@H](N)[C@H]1F	7110	3230	–
COC(=O)CNC(=O)[C@]1(F)O[C@@H]([C@H](O)[C@H](O)CO)[C@H](NC(C)=O)[C@@H](N)[C@H]1F	4390	2550	–
COC(=O)[C@]1(F)O[C@@H]([C@H](O)[C@H](O)COC(=O)OCC(C)(C)C)[C@H](NC(C)=O)[C@@H](N)[C@H]1F	6010	2100	–
CC(=O)N[C@@H]1[C@@H](N)[C@@H](F)[C@](F)(C(=O)NCc2ccccc2)O[C@H]1[C@H](O)[C@H](O)CO	590	270	–
CC(=O)N[C@@H]1[C@@H](N)[C@@H](F)[C@](F)(C(=O)NC2CCCCC2)O[C@H]1[C@H](O)[C@H](O)CO	2150	1140	–
COC(=O)[C@]1(F)O[C@@H]([C@H](O)[C@H]2COC(C(C)C)(C(C)C)O2)[C@H](NC(C)=O)[C@@H](N)[C@H]1F	730	620	–
CC(=O)N[C@@H]1[C@@H](N)[C@@H](F)[C@](F)(C(=O)OC2CCCC2)O[C@H]1[C@H](O)[C@H](O)CO	2880	1030	–
COC(=O)OC[C@@H](O)[C@@H](O)[C@@H]1O[C@@](F)(C(=O)OC)[C@H](F)[C@H](N)[C@H]1NC(C)=O	–	90	–
CC(=O)N[C@@H]1[C@@H](N)[C@@H](F)[C@](F)(C(=O)NCCO)O[C@H]1[C@H](O)[C@H](O)CO	1390	690	–
CCOP(=O)(OCC)OC[C@@H](O)[C@@H](O)[C@@H]1O[C@@](F)(C(=O)OC)[C@H](F)[C@H](N)[C@H]1NC(C)=O	2550	1000	–
COC(=O)[C@]1(F)O[C@@H]([C@H](O)[C@H](O)COC(=O)OCC(C)C)[C@H](NC(C)=O)[C@@H](N)[C@H]1F	11300	9930	remaining at 0.25 h, 10 µM [1]: 90%; AUC (Mus musculus [2]): 293 µmol·min; remaining at 0.25 h, 10 µM [11]: 81%; remaining at 1 h, 10 µM [3]: 86%; Cmax (Mus musculus [4]): 2700 nM; Tmax (Mus musculus [5]): 1 h; remaining at 1 h, 10 µM [6]: 74%; remaining at 0.25 h, 10 µM [7]: 98%; remaining at 1 h, 10 µM [12]: 17%; F (Mus musculus [9]): 3.9%
CC(=O)N[C@@H]1[C@@H](N)[C@@H](F)[C@](F)(C(=O)OCCCCCOC(=O)C(C)(C)C)O[C@H]1[C@H](O)[C@H](O)CO	3770	1870	–
COC(=O)[C@]1(F)O[C@@H]([C@H](O)[C@H]2COC(=O)O2)[C@H](NC(C)=O)[C@@H](N)[C@H]1F	730	350	–

SMILES	concentration (Mus musculus [8]) [nM]	concentration (Mus musculus [10]) [nM]	also measured
CC(=O)N[C@@H]1[C@@H](N)[C@@H](F)[C@](F)(C(=O)OCCCOC(=O)C(C)(C)C)O[C@H]1[C@H](O)[C@H](O)CO	3360	1300	–
CCC1(CC)OC[C@H]([C@@H](O)[C@@H]2O[C@@](F)(C(=O)OC)[C@H](F)[C@H](N)[C@H]2NC(C)=O)O1	2250	1950	–
COC(=O)[C@]1(F)O[C@@H]([C@H](O)[C@H](O)COP(=O)(OC)OC)[C@H](NC(C)=O)[C@@H](N)[C@H]1F	620	960	–
CC(=O)N[C@@H]1[C@@H](N)[C@@H](F)[C@](F)(C(=O)NCc2ccccc2F)O[C@H]1[C@H](O)[C@H](O)CO	840	660	–
COC(=O)[C@]1(F)O[C@@H]([C@H](O)[C@H](O)CO)[C@H](NC(C)=O)[C@@H](N)[C@H]1F	5340	6440	remaining at 0.25 h, 10 µM [1]: 100%; AUC (Mus musculus [2]): 219 µmol·min; remaining at 0.25 h, 10 µM [11]: 90%; remaining at 1 h, 10 µM [3]: 99%; Cmax (Mus musculus [4]): 1600 nM; Tmax (Mus musculus [5]): 1 h; remaining at 1 h, 10 µM [6]: 75%; remaining at 0.25 h, 10 µM [7]: 100%; remaining at 1 h, 10 µM [12]: 6%; F (Mus musculus [9]): 2.2%
CC(=O)N[C@@H]1[C@@H](N)[C@@H](F)[C@](F)(C(=O)OCC2CCCCC2)O[C@H]1[C@H](O)[C@H](O)CO	4670	3410	remaining at 0.25 h, 10 µM [1]: 100%; AUC (Mus musculus [2]): 736 µmol·min; remaining at 0.25 h, 10 µM [11]: 98%; remaining at 1 h, 10 µM [3]: 100%; Cmax (Mus musculus [4]): 1200 nM; Tmax (Mus musculus [5]): 1 h; remaining at 1 h, 10 µM [6]: 100%; remaining at 0.25 h, 10 µM [7]: 100%; remaining at 1 h, 10 µM [12]: 64%; F (Mus musculus [9]): 9.3%
CC(=O)N[C@@H]1[C@@H](N)[C@@H](F)[C@](F)(C(=O)NCc2cccc(F)c2)O[C@H]1[C@H](O)[C@H](O)CO	810	310	–
COC(=O)[C@]1(F)O[C@@H]([C@H](O)[C@H](O)COC(=O)OCC2c3ccccc3-c3ccccc32)[C@H](NC(C)=O)[C@@H](N)[C@H]1F	750	620	–
CC(=O)N[C@@H]1[C@@H](N)[C@@H](F)[C@](F)(C(=O)OCCCCCOC(=O)c2ccc3ccccc3c2O)O[C@H]1[C@H](O)[C@H](O)CO	800	290	–
CC(=O)N[C@@H]1[C@@H](N)[C@@H](F)[C@](F)(C(=O)OCCCOC(=O)c2ccc3ccccc3c2O)O[C@H]1[C@H](O)[C@H](O)CO	300	250	–
COC(=O)[C@]1(F)O[C@@H]([C@H](O)[C@H]2COC3(CCCCC3)O2)[C@H](NC(C)=O)[C@@H](N)[C@H]1F	390	–	–
CC(=O)N[C@@H]1[C@@H](N)[C@@H](F)[C@](F)(C(=O)OCCC(=O)N(C)C)O[C@H]1[C@H](O)[C@H](O)CO	3750	1400	–
COC(=O)[C@]1(F)O[C@@H]([C@H](O)[C@H]2COC3(CCCC3)O2)[C@H](NC(C)=O)[C@@H](N)[C@H]1F	1690	490	–
CC(=O)N[C@@H]1[C@@H](N)[C@@H](F)[C@](F)(C(N)=O)O[C@H]1[C@H](O)[C@H](O)CO	3330	710	–
CC(=O)N[C@@H]1[C@@H](N)[C@@H](F)[C@](F)(C(=O)OCCCCC(F)(F)F)O[C@H]1[C@H](O)[C@H](O)CO	4020	2540	–
CCOC(=O)[C@]1(F)O[C@@H]([C@H](O)[C@H](O)CO)[C@H](NC(C)=O)[C@@H](N)[C@H]1F	3580	2070	–
